Measurements from patent US20200405687A1, “METHODS FOR THE TREATMENT OF INFECTION” (Corbus Pharmaceuticals, Inc., priority 2016, published 2020).

Experiments:
[1] = Phase 2 study in subjects having cystic fibrosis, acute pulmonary exacerbations and safety (Example 4); assay type: in vivo, human
Procedure: An international, multi-center, double-blinded, randomized, placebo-controlled Phase 2 study was performed in subjects having cystic fibrosis. The primary objective of the study was to test safety and tolerability of ajulemic acid in adults with cystic fibrosis who had forced expiratory volume in 1 second (FEV1) percent predicted at least 40% predicted, without regard to their CFTR mutation, infecting pathogen, or baseline treatment. Events of special interest included acute exacerbations requiring intravenous antibiotic treatment or treatment with new antibiotics.
Eighty-five subjects on stable standard-of-care medications were dosed with ajulemic acid at 21 cystic fibrosis centers in the U.S. and Europe and treated with ajulemic acid daily for a period of 84 days, with a follow-up period of 28 days. During the first part of the study (weeks 1-4) subjects were randomized to the following treatment groups: placebo (n=35), 1 mg/day ajulemic acid (n=26) or 5 mg/day ajulemic acid (n=24). During the second part of the study (weeks 5-13), subjects given ajulemic acid in the first part of the study were re-randomized to ajulemic acid 20 mg once per day (n=31) or ajulemic acid 20 mg twice a day (n=30) with 11 subjects from the placebo group also being randomized to the ajulemic acid arms. The last part of the study was a 28 day follow up period post treatment.

Pseudomonas aeruginosa [2] = assay: Pseudomonas aeruginosa agarose bead lung infection in Cftr KO and WT mice (Example 2); assay type: in vivo
Procedure: A limited number of both WT (C57BL/6J, n=5) and Cftr KO (congenic-homologous, DelF508-FABP gut corrected animals, n=5) were evaluated for safety, toxicity, and efficacy upon oral dosing of 5 mg/kg ajulemic acid BID. As controls, PA infected WT C57BL/6J and Cftr KO mice were given the 2% methylcellulose vehicle. Cftr KO and WT animals in this study were followed daily for clinical score and weights for 10 days. At Day 10, animals were euthanized and evaluated for bacteria load (colony forming units, cfus), total bronchoalveolar lavage (BAL) white blood cell counts (WBCs), and differential cell counts.
Mice were inoculated with Pseudomonas aeruginosa (PA) agaroses beads in the lungs and then treated twice daily with oral doses of ajulemic acid at 1 mg/kg and 5 mg/kg. Ajulemic acid was then administered by gavage at 1 mg/kg or 5 mg/kg dose BID in 2% methylcellulose for 10 days starting 24 hours after establishing chronic Pseudomonas aeruginosa (PA) infection. The study included 4 groups:
1) C57BL/6J+vehicle (WT DIL, n=5),
2) C57BL/6J+5 mg/kg ajulemic acid BID (WT AJ, n=5),
3) Cftr KO+vehicle (CF DIL, n=5), and
4) Cftr KO+5 mg/kg ajulemic acid BID (CF AJ, n=5),
and all animals were chronically infected with Pseudomonas aeruginosa using a standard agarose bead model.

Pseudomonas aeruginosa [3] = assay: Pseudomonas aeruginosa agarose bead lung infection in WT C57BL/6J mice (Example 1); assay type: in vivo
Procedure: Ajulemic acid (AJA) was tested in mice inoculated with Pseudomonas aeruginosa to determine its effect on treatment of infection, including the ability to promote bacterial clearance. Mice (WT, C57BL/6J) were inoculated with Pseudomonas aeruginosa agarose beads in the lungs and then treated twice daily with oral doses of ajulemic acid at 1 mg/kg and 5 mg/kg. Ajulemic acid was then administered by gavage at 1 mg/kg or 5 mg/kg dose BID in 2% methylcellulose for 10 days starting 24 hours after establishing chronic Pseudomonas aeruginosa infection. WT animals in this study were followed daily for clinical score and weights for 10 days. At Day 10, animals were euthanized and evaluated for bacteria load (colony forming units, cfus), total bronchoalveolar lavage (BAL), white blood cell counts (WBCs), and differential cell counts.
The study was conducted with 40 wild type female C57BL/6J mice. Each group of mice was inoculated with 10^5 colony forming units (CFUs) of Pseudomonas aeruginosa (PAM 5715, a CF clinical isolate). One day post infection, mice were given either 2% methylcellulose, 2% methylcellulose+1 mg/kg ajulemic acid, or 2% methylcellulose+5 mg/kg ajulemic acid BID. Animals were followed for 10 days. At day 10, animals were euthanized for BAL CFUs, differentials, total white blood cell count with fluid, and pellet saved for future studies.
Treatment and control groups include the following Pseudomonas aeruginosa infected controls treated with 2% methylcellulose, Pseudomonas aeruginosa infected animals treated with 1 mg/kg BID AJA in 2% methylcellulose, Pseudomonas aeruginosa infected animals treated with 5 mg/kg BID AJA in 2% methylcellulose, and untreated baseline controls.

[4] = 1 mg/day, 5 mg/day, or 20 mg/day, respective treatment periods
[5] = across doses, compared to placebo

CCCCCCC(C)(C)c1cc(O)c2c(c1)OC(C)(C)[C@@H]1CC=C(C(=O)O)C[C@@H]21 [ajulemic acid, (6aR,10aR)-1-hydroxy-6,6-dimethyl-3-(2-methyl-2-octanyl)-6a,7,10,10a-tetrahydro-6H-benzo[c]chromene-9-carboxylic acid]
Acute pulmonary exacerbations requiring a new antibiotic, Subjects ([1]; 1 mg, N = 22, Weeks 1-4, placebo 6 (25.0)): 3 (13.6) n/N at risk (%) | Acute pulmonary exacerbations requiring intravenous antibiotics, Subjects ([1]; 1 mg, Weeks 1-4, placebo 3 (8.6)): 1 (3.8) n (% at risk) | acute pulmonary exacerbations requiring any new antibiotic [1, 4]: Reductions were also observed | acute pulmonary exacerbations requiring intravenous antibiotics [1, 4]: Reductions were also observed | Acute pulmonary exacerbations requiring a new antibiotic, Subjects ([1]; 5 mg, N = 23, Weeks 1-4, placebo 6 (25.0)): 3 (13.0) n/N at risk (%) | Acute pulmonary exacerbations requiring intravenous antibiotics, Subjects ([1]; 5 mg, Weeks 1-4, placebo 3 (8.6)): 1 (4.2) n (% at risk) | Acute pulmonary exacerbations requiring a new antibiotic, Subjects ([1]; 20 mg BID, N = 22, Post-treatment, placebo 2 (22.2)): 2 (9.1) n/N at risk (%) | Acute pulmonary exacerbations requiring a new antibiotic, Subjects ([1]; 20 mg BID, N = 24, Weeks 5-12, placebo 9 (50.0)): 2 (8.3) n/N at risk (%) | Acute pulmonary exacerbations requiring intravenous antibiotics, Subjects ([1]; 20 mg BID, Weeks 5-12, placebo 3 (16.7)): 1 (3.3) n (% at risk) | reduction in the 48 week rate of acute pulmonary exacerbations requiring any new antibiotic ([1]; 20 mg BID, compared to placebo): 82% | reduction in the 48 week rate of acute pulmonary exacerbations requiring intravenous antibiotics ([1]; 20 mg BID, compared to placebo): 75% | Acute pulmonary exacerbations requiring a new antibiotic, Subjects ([1]; 20 mg, N = 20, Post-treatment, placebo 2 (22.2)): 6 (30.0) n/N at risk (%) | Acute pulmonary exacerbations requiring a new antibiotic, Subjects ([1]; 20 mg, N = 25, Weeks 5-12, placebo 9 (50.0)): 4 (16.0) n/N at risk (%) | Acute pulmonary exacerbations requiring intravenous antibiotics, Subjects ([1]; 20 mg, Weeks 5-12, placebo 3 (16.7)): 3 (6.5) n (% at risk) | subjects withdrawn due to adverse events ([1]; 85 subjects dosed, 2 on placebo): 3 subjects | occurrence of acute pulmonary exacerbations requiring treatment with any new antibiotic [1, 5]: dose-dependent decrease | occurrence of acute pulmonary exacerbations requiring treatment with intravenous antibiotics [1, 5]: dose-dependent decrease | related serious or severe treatment emergent adverse events ([1]; adults with cystic fibrosis, 1-20 mg BID, 84 days): No related serious or severe treatment emergent adverse events | Survival Rate (Day 10) (Pseudomonas aeruginosa [2]; Cftr KO (CF) mice, 5 mg/kg BID oral, n=5, vehicle 3/5, 5 mg/kg): 5/5 | BAL WBC counts (Pseudomonas aeruginosa [2]; Cftr KO mice, 5 mg/kg BID): decreased BAL WBC counts | number of alveolar macrophages (Pseudomonas aeruginosa [2]; Cftr KO mice, 5 mg/kg BID): increase the number of alveolar macrophages | weight loss (Pseudomonas aeruginosa [2]; Cftr KO mice, 5 mg/kg BID, P<0.01): decreased weight loss | numbers of neutrophils (Pseudomonas aeruginosa [2]; Cftr KO mice, 5 mg/kg BID, P<0.05): decreased numbers of neutrophils | ability to resolve pulmonary infection as assessed by lung CFUs (Pseudomonas aeruginosa [2]; Cftr KO mice, 5 mg/kg BID, Pvariance=0.002): improved the ability of the animals to resolve pulmonary infection | white blood cell response (Pseudomonas aeruginosa [3]; 1 mg/kg and 5 mg/kg BID oral, day 3, relative to controls infected or not infected): elevated | weight profiles (body weight maintenance) (Pseudomonas aeruginosa [3]; 1 mg/kg or 5 mg/kg BID, 10 days): no real adverse effect | bacterial load of Pseudomonas aeruginosa (bacterial CFUs in the lungs) (Pseudomonas aeruginosa [3]; 5 mg/kg BID oral, day 10): effective at decreasing the overall number of bacterial CFUs in the lungs | treatment of infection compared with vehicle (Pseudomonas aeruginosa [3]; WT C57BL/6J mice): more efficient at treating infection than vehicle | tolerability (Pseudomonas aeruginosa [3]; WT C57BL/6J mice, 1 or 5 mg/kg BID oral, 10 days): well tolerated | white blood cells (Pseudomonas aeruginosa [3]; all groups, day 10, compared to controls): normalized | levels of neutrophils (Pseudomonas aeruginosa [3]; all treatment groups relative to the non-treated control): elevated levels of neutrophils | levels of lymphocytes or eosinophils (Pseudomonas aeruginosa [3]; any of the groups): no significant difference | alveolar macrophages (Pseudomonas aeruginosa [3]; treatment groups, by day 10): increase in alveolar macrophages | neutrophils (Pseudomonas aeruginosa [3]; treatment groups, by day 10): decreased neutrophils
